# Measurements: publication PMC7415810, “A novel nucleolin-binding peptide for Cancer Theranostics” (Theranostics, 2020)
# B1: AGM-330 (tetrameric multiple-antigen-peptide form) (peptide)
# peptide: RHGAMVYLK
# modifications: PEG12 after the C-terminal Lys of each RHGAMVYLK arm (RHGAMVYLK-PEG12-OH), joined to a trilysine core
# notes: arm of the dendrimer; picked from a one-bead-one-compound library on MDA-MB-231 cells; The core is not written as a chain; also called tetrameric AGM-330; source: synthetic peptide (AnyGen, solid-phase peptide synthesis)
# Assays:
# [1] = test system: MDA-MB-231; assay: Whole-cell binding assay on OBOC peptide beads; assay type: cell-based, human; conditions: peptide on TentaGel beads incubated with cells at 10^6 cells/ml; repeated 3 times
# Protocol: (§1) The beads were washed extensively with double-distilled water and phosphate-buffered saline (PBS; Welgene Inc., Korea) before screening. Cancer and normal cells were detached from culture dishes with trypsin/EDTA (Gibco), washed with their corresponding culture medium, resuspended at 10^6 cells/ml, and incubated with OBOC beads in Petri dishes in a humidified CO2 incubator at 37 °C with shaking (60 rpm). Beads bound by cells appeared under a microscope as rosettes in which a central bead was covered by one or more layers of cells. The positive beads were picked with a pipette under an inverted microscope, treated with guanidine-HCL (8 M, 20 min) to remove cells and proteins on the bead surface, and subjected to a second round of screening with normal breast epithelial cells to eliminate false positive binding.
# (§2) Note : Semiquantitative relative binding activity: “++++” very strong binding (>40 cells per bead), “+++” strong binding (30
# (§3) -20 cells per bead), “+ +” moderate binding (20 - 10 cells per bead), “+” weak binding (5-10 cells per bead), “-” no binding. […]
# (§4) Figure S1. A, Steps performed in peptide library synthesis and screening. 1, The split-mix synthesis method was performed to construct the combinatorial OBOC libraries. […]
# (§5) sized. 3, OBOC libraries were incubated with cancer cells in a CO2 incubator. 4, Beads carrying ligands with an affinity for cell surface molecules became covered with cells. 5, The positive beads were picked with a pipette under an inverted microscope. 6, The peptide sequences for positive beads were determined by Edman microse - […]
# (§6) peptide libraries. B, The binding specificities of the peptides against cancer cell and normal cells were deter- […]
# (§7) breast and colorectal cancer cells and normal breast and colorectal cells were re-suspended at 10^6 cells/ml and incubated with beads. All experiments were repeated 3 times. Scale bar, 200 μm.
# [2] = test system: MCF-10A; assay: Whole-cell binding assay on OBOC peptide beads; assay type: cell-based, human; conditions: peptide on TentaGel beads incubated with cells at 10^6 cells/ml; repeated 3 times
# Protocol: as §1, §2, §3, §4, §5, §6, §7
# [3] = test system: MCF-10A cells; assay: cells; conditions: Homo sapiens, MCF-10A, 48 h, read-out: IC50, MCF-10A cells
# Protocol: (§8) Cancer and normal cells (1 × 10^4 cells/well) were seeded in 96-well plates, incubated for 24 h, and then treated with increasing concentrations of AGM-330, PTX, and AGM-330-PTX for 48 h. Cell viability was assessed by the CellVia WST-1 assay (Young In Frontier) according to the manufacturer's instructions. The numbers of viable cells were measured at a wavelength of 450 nm using a VersaMax ELISA plate reader (Molecular Devices, San Jose, CA, USA).
# (§9) Figure S3. A-C, Cancer and normal cells (1 × 10^4 cells/well) were seeded in 96-well plates. After 24 h of incuba-tion, the cells were treated with an increasing concentration of dimeric or tetrameric AGM-330 for 48 h. The viability of cells grown in 0 % FBS (A), 5 % FBS (B) or 10 % FBS (C) was assessed by a CellVia WST-1 assay (Young In Frontier, Seoul, Korea) according to the manufacturer’s instruction. The numbers of viable cells were measured at a wavelength of 450 nm using an VersaMax ELISA plate reader (Molecular Devices). D, E, Binding specificity of AGM-330. A whole-cell binding assay was performed to determine the cell binding of AGM-330 in 1 % FBS (D) or 5 % FBS (E). Scale bar, 200 μm.
# [4] = test system: MDA-MB-231 cells; assay: cells; conditions: Homo sapiens, MDA-MB-231, 48 h, read-out: IC50, MDA-MB-231 cells
# Protocol: as §8, §9
# [5] = test system: MDA-MB-231-luc xenograft; assay: Tumorigenesis experiment, MDA-MB-231-luc breast cancer xenograft; conditions: tail vein twice a week; for average tumor volume: day 21, n = 5; for final average tumor weight: n = 5
# Protocol: All animal experiments were performed in accordance with IACUC guidelines (GIST-2019-040). For tumorigenesis experiments, anesthetized 6-week-old female NOD-scid Il2rg^-^/^- mice (NPG^TM, VITALSTAR) were inoculated in the mammary fat pad with 1 × 10^6 MDA-MB-231-luc cells in a 100 μl volume (n = 5 for each group). After tumor cell inoculation, when the tumor volume reached approximately 100 mm^3, the mice were randomly divided into the following five groups: (i) control, (ii) low-dose paclitaxel (2 mg/kg), (iii) high-dose paclitaxel (10 mg/kg), (iv) AGM-330 (16.68 mg/kg, molar equivalent to 2 mg/kg of PTX), and (v) AGM-330-PTX (19.05 mg/kg, molar equivalent to 2 mg/kg of PTX). The tumor size was measured twice a week, and the tumor volume was calculated with the following formula: volume (mm^3) = [length (mm)] × [width (mm)]^2 × 0.5. For the bioluminescent imaging experiment, D-luciferin (150 mg/kg; PerkinElmer) was intraperitoneally injected into each mouse, and an IVIS 100 imaging system (Xenogen, Corporation, Alameda, CA) was used for bioluminescent monitoring. Mice were anesthetized with vaporized isofurane (BK Pharm, Ilsan, Korea) and placed in an imaging chamber. After 10 min, each animal was imaged with an exposure time of 1 min. All bioluminescent image data were obtained using Living Image software (version 4.5.2, PerkinElmer). Photons detected from tumors were converted to average radiance values (photon/sec/cm^2/sr), which are quantitative data obtained from a region of […] (ROI) and include the photons emitted by bioluminescent cells from an assigned rectangular area over the whole body of each mouse.
# A, Cell proliferation inhibition by AGM-330-PTX treatment was determined for 48 h by the WST assay in multiple breast and colorectal cancer cells and in normal cells. B, Schematic representation of the experimental protocol as described in the materials and methods section. Anesthetized 6‑week-old […] NPG mice were inoculated with a 1:1 mix of Matrigel and 1 × 10^6 MDA-MB-231-luc cells into the mammary fat pad. When the volume of primary tumors reached approximately 100 mm^3, tumor-bearing mice were treated with vehicle (PBS), PTX (2 or 10 mg/kg), AGM-330 (16.68 mg/kg, molar equivalent to 2 mg/kg of PTX), or AGM-330-PTX (19.05 mg/kg, molar equivalent to 2 mg/kg of PTX; n = 5/group). C-E, The therapeutic effect of AGM-330-PTX was evaluated in breast cancer xenograft models. C, Primary tumor volume was measured twice a week until the day of sacrifice. The primary tumor volume was calculated by the formula volume (mm^3) = (length (mm)) × (width (mm))^2 × 0.5. D, On the day of sacrifice, all primary tumors were isolated, and (E) the primary tumor weights were evaluated. F-I, Immunohistochemistry (IHC) sections of representative tumors with Ki-67 (F,H) and TUNEL (G,I) staining. Nuclei were stained with DAPI (blue). Scale bar, 50 µm. Bar graphs represent the mean ± SD, and statistical analyses were performed by one-way ANOVA with Dunnett's multiple comparison. *, **, and *** indicate P < 0.05, P < 0.01, and P < 0.001, respectively.
# Following in vitro proliferation analysis on cancer lines, we investigated whether AGM-330-PTX could be a potential therapeutic agent in vivo. We inoculated MDA-MB-231-luc cells into the mammary fat pad of NPG mice. After the […] tumors grew to 100 mm^3, comparative efficacy studies were performed by dividing the animals into five groups (n = 5/group) treated with vehicle (PBS), PTX (2 or 10 mg/kg, respectively), AGM-330 (16.68 mg/kg, molar equivalent to 2 mg/kg of PTX), or AGM-330-PTX (19.05 mg/kg, molar equivalent to 2 mg/kg of PTX) twice a week by tail vein injection (Figure 5B). Tumor growth was monitored by measuring volumes twice a week with a caliber rule over the course of 3 weeks.
# Figure S11. A-E, NPG TM mice bearing MDA-MB-231-luc tumors were treated twice a week for 21 days with […]
# [6] = In vitro stability test in human serum; conditions: 100 μM stock diluted 10-fold in 100% human serum, 37 °C, 0-24 h; analytical HPLC; triplicate
# Protocol: Stock solutions of peptides (100 μM) were diluted by a factor of 10 with pre-warmed 100% human serum (Sigma-Aldrich, St. Louis, MO, USA) and incubated at 37 °C for 0, 3, 6, 9, and 24 h. Controls with peptides in PBS were included. The action was stopped by denaturing the serum proteins with urea at a final concentration of 3 M at 4 °C for 10 min, followed by precipitation of serum proteins with trichloroacetic acid at a final concentration of 7% (v/v) (4 °C, 10 min) and centrifugation (17,000 × g, 10 min). The supernatant of each sample was recovered and run on an analytical column using a linear gradient of 5-65% solvent B for 30 min at a flow rate of 1 ml/min, where solvent A was water containing 0.1% TFA and solvent B was acetonitrile containing 0.1% TFA. The percentage of peptide remaining in serum-treated samples was determined by comparing the height of the peptide peak obtained at each time point with that of the peptide peak obtained at the 0 time point. […]
# (§10) bated at 37 °C for 0, 3, 6, 9, and 24 h. The portion of serum-treated peptide remaining was determined by calcu-lating the height of the respective elution peak in analytical-HPLC and comparing it with control without incuba- […]
# Plasma peptide concentrations were quantified by ELISA, and pharmacokinetic profiles were analyzed using Phoenix WinNonlin 8.1 (Pharsight Corporation, Mountain View, CA, USA). […]
# [7] = In vivo stability test (plasma pharmacokinetics after single intravenous injection); conditions: mouse
# Protocol: After 15 min of centrifugation at 5,000 rpm and 4 °C, the plasma was obtained and stored at -80 °C. Plasma peptide concentrations were quantified by ELISA, and pharmacokinetic profiles were analyzed using Phoenix WinNonlin 8.1 (Pharsight Corporation, Mountain View, CA, USA). The area under the plasma concentration-time curve (AUC), distribution half-time (T1/2), maximum plasma concentration (Cmax) and time required to reach maximum plasma concentration (Tmax) values were directly determined from the experimental data. […]
# as §10
# Plasma peptide concentrations were quantified by ELISA, and pharmacokinetic profiles were analyzed using Phoenix WinNonlin 8.1 (Pharsight Corporation, Mountain View, CA, USA). The data are presented as the means ± standard deviation.
# [8] = biological target: T1, full length recombinant NCL (OriGene) (UniProt P19338 1-710); assay: SPR; Biacore T-200, 25 °C; full length recombinant NCL amine-coupled on CM5 (about 1000 RU); AGM-330 20 nM - 2.5 μM injected at 30 μl/min; HBS-EP (10 mM HEPES pH 7.4, 0.15 M NaCl, 3.4 mM EDTA, 0.05% Triton-X 100); KD = kd/ka; conditions: both partners purified
# T1 construct: nucleolin, full length recombinant protein from OriGene; no catalogue number, species or tags are printed; source: bought: OriGene
# T1 sequence (P19338 whole entry): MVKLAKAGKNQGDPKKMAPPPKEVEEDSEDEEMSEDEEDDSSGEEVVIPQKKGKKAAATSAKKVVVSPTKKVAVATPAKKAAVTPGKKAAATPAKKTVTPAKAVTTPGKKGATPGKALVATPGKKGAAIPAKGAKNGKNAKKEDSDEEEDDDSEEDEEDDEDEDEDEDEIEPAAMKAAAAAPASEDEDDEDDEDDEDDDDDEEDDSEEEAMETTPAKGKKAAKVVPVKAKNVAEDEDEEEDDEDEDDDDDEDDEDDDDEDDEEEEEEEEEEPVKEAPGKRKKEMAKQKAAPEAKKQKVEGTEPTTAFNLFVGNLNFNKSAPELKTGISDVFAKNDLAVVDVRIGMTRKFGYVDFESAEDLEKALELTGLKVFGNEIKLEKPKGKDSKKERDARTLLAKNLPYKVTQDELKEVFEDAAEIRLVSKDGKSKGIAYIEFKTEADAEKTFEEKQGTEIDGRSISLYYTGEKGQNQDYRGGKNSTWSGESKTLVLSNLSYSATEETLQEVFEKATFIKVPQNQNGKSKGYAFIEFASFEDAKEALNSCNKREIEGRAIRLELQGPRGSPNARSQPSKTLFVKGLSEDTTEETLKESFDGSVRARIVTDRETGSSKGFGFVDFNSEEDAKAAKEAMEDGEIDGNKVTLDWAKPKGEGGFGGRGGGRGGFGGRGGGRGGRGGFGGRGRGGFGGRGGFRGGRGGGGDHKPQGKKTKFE
Molecule,"Semiquantitative relative binding activity, MDA-MB-231 [1]","Semiquantitative relative binding activity, MCF-10A [2]",other results
"RFLKNKKAR [AGM-333, 9mer peptide hit from OBOC screening]",++ (moderate binding (20 - 10 cells per bead)),+++ (strong binding (30 -20 cells per bead)),–
"RWLKNKKAR [AGM-334, 9mer peptide hit from OBOC screening]",++ (moderate binding (20 - 10 cells per bead)),+++ (strong binding (30 -20 cells per bead)),–
"FGRLKKPLK [AGM-335, 9mer peptide hit from OBOC screening]",+ (weak binding (5-10 cells per bead)),+ (weak binding (5-10 cells per bead)),–
"CC(=O)O[C@H]1C(=O)[C@@]2(C)[C@H]([C@H](OC(=O)c3ccccc3)[C@]3(O)C[C@H](OC(=O)[C@H](O)[C@@H](NC(=O)c4ccccc4)c4ccccc4)C(C)=C1C3(C)C)[C@]1(OC(C)=O)CO[C@@H]1C[C@@H]2O [PTX, paclitaxel, reference compound]",–,–,IC50 [3]: 450 nM; IC50 [4]: 370 nM; average tumor volume ([5]; 2 mg/kg): 1671 ± 199 mm^3; final average tumor weight ([5]; 2 mg/kg): 2.1 ± 0.4 g; average tumor volume ([5]; 10 mg/kg): 988 ± 78 mm^3; final average tumor weight ([5]; 10 mg/kg): 1.5 ± 0.1 g
ADHRHRRSG [AGM-331],++++ (very strong binding (>40 cells per bead)),++ (moderate binding (20 - 10 cells per bead)),–
AVARARRRR [AGM-332],+++ (strong binding (30 -20 cells per bead)),++ (moderate binding (20 - 10 cells per bead)),–
CSCC[C@H](NC(=O)[C@H](C)NC(=O)CNC(=O)[C@H](Cc1c[nH]cn1)NC(=O)[C@@H](N)CCCNC(=N)N)C(=O)N[C@H](C(=O)N[C@@H](Cc1ccc(O)cc1)C(=O)N[C@@H](CC(C)C)C(=O)N[C@@H](CCCCN)C(=O)O)C(C)C [AGM-330m],–,–,degradation after incubation with serum [6]: rapidly degraded; Cmax [7]: 1270 ± 120 ng/mL; Tmax [7]: 10 min
"KRRRKAPTD [AGM-337, 9mer peptide hit from OBOC screening]",+ (weak binding (5-10 cells per bead)),+ (weak binding (5-10 cells per bead)),–
"KRRRRERAG [AGM-336, 9mer peptide hit from OBOC screening]",+++ (strong binding (30 -20 cells per bead)),+++ (strong binding (30 -20 cells per bead)),–
B1,–,–,Kd [8]: 57.7 ± 12 nM
